The source of these data is US20250099468A1, “TREATING LIVER DISORDERS WITH AN SSAO INHIBITOR” (Terns Pharmaceuticals, Inc., priority 2021, published 2025).

SMILES strings stand for the structures. Entries after “also recorded” stand apart in the source; their conditions may differ.

The nature of data set [1]: Single-ascending dose clinical trial, safety. It is filed as in vivo, human. Particulars: single dose 6 mg or placebo (n = 8). On the procedure: (§1) Safety was assessed for 7 (±3) days after dosing.
Data set [2] in a line: Single-ascending dose clinical trial, plasma PK. Particulars: for plasma PK exposure increase with dose: single dose, between 3 and 10 mg. The format is in vivo, human. As to the method: as §1
(§2) Plasma PK parameters were determined by non-compartmental analysis.

Data set [3] in a line: Multiple-ascending dose clinical trial, safety. The format is in vivo, human. On the procedure: (§3) A multiple-ascending dose clinical trial of Compound 1 was performed.
In data set [4] the target is T1, plasma SSAO (Homo sapiens, UniProt Q16853).
T1 construct: from tissue; host or cells: human plasma
T1 sequence (Q16853 29-763 limits assumed): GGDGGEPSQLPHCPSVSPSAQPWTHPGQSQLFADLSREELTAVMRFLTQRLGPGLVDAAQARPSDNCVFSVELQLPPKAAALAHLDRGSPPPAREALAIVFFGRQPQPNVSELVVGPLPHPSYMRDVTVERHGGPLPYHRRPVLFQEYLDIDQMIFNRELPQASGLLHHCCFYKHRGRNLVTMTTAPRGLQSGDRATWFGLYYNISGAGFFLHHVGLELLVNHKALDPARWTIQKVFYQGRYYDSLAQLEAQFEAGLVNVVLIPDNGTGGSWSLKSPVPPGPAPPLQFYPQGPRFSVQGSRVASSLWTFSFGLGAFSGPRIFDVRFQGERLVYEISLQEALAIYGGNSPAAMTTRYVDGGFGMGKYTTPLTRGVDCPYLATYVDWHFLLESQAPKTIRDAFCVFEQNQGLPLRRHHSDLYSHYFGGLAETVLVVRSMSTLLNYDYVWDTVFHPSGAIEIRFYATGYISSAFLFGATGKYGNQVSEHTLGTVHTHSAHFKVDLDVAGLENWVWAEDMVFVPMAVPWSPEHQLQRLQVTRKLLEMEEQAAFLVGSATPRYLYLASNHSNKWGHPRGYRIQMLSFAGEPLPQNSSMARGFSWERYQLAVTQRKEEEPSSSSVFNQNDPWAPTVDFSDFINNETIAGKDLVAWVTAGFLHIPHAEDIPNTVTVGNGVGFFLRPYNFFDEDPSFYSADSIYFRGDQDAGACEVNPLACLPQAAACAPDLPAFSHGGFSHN
The data set can be described thus: Single-ascending dose trial, plasma SSAO / amine oxidase activity. The format is in vivo. As to the method:
as §1, §2
SSAO-specific amine oxidase levels in plasma were determined using a kinetic-based assay essentially as described previously (Schilter et al). Endogenous monoamine oxidases A and B were inhibited by adding pargyline to plasma samples prior to measuring H2O2 generation levels in placebo and active recipients.

The subject of a further data set is rat model of NASH. The data set can be described thus: Rat model of NASH. It is filed as in vivo.
The target in a further data set is T2, MAO-A (Homo sapiens, UniProt P21397).
T2 sequence (P21397 1-527): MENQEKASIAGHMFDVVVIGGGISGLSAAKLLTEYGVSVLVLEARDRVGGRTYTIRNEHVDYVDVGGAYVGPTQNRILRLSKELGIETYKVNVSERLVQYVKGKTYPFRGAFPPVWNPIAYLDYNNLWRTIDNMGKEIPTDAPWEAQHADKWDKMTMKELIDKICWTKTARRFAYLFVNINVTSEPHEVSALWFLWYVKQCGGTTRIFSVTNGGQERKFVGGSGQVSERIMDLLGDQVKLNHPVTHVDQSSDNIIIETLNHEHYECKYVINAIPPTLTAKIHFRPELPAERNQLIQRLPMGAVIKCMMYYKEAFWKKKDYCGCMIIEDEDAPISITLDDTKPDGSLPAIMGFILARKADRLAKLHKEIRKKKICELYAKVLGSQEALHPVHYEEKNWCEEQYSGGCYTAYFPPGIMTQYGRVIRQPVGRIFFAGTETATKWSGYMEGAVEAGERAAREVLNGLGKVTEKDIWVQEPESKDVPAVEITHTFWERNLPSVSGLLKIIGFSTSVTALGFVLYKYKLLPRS
Description: Biochemical activity, MAO-A. Particulars: all single dose levels (1-10 mg).

A further data set addresses T3, MAO-B (Homo sapiens, UniProt P27338).
T3 sequence (P27338 1-520): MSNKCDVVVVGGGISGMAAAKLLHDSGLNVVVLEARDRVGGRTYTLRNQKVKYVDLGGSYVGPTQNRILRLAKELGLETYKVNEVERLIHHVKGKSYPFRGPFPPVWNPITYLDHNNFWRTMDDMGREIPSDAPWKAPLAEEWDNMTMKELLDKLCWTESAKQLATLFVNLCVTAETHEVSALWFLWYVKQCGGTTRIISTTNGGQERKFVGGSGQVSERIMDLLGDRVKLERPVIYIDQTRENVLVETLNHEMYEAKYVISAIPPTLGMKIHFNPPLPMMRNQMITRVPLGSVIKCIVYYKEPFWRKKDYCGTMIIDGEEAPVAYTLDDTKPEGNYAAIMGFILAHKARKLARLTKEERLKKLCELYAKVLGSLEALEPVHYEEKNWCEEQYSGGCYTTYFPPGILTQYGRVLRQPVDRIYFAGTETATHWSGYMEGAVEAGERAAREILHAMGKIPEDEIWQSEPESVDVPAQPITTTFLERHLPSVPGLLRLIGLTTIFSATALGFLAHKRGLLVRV
The data set can be described thus: Biochemical activity, MAO-B. The conditions noted are these: all single dose levels (1-10 mg).

Data set [5] concerns plasma methylamine. Description: Multiple-ascending dose trial, plasma methylamine. The format is in vivo, human. As to the method: as §3
A further data set deals with T4, plasma VAP-1 (Homo sapiens, UniProt Q16853).
T4 construct: from tissue; host or cells: human plasma
T4 sequence (Q16853 29-763 limits assumed): T1 sequence (Q16853 29-763 limits assumed)
Description: NASH patient study Part 1, plasma VAP-1 activity. The format is in vivo. The conditions noted are these: 10 mg QD, through week 12. On the procedure: (§4) Part 1 interim analysis primary endpoint was safety assessed by adverse events (AEs) and laboratory tests; percent change from baseline (BL) in plasma VAP-1 activity was a secondary endpoint. Exploratory imaging and blood-based biomarkers of liver inflammation and fibrosis were also assessed. Analyses of change (or percent change) from baseline used an ANCOVA model with change (or percent change) from baseline as the dependent variable including treatment group and randomization strata as fixed effects and baseline as a covariate.

Data set [6] can be described thus: Multiple-ascending dose clinical trial, plasma PK. It is filed as in vivo, human. On the procedure:
as §3

Data set [7] deals with T1, plasma SSAO. Description: Multiple-ascending dose trial, plasma SSAO / amine oxidase activity. The format is in vivo. As to the method:
as §3

Data set [8] concerns plasma methylamine. The data set can be described thus: Single-ascending dose trial, plasma methylamine (MMA). It is filed as in vivo, human. The conditions noted are these: single dose 1-10 mg. As to the method: as §1
Data set [9] can be described thus: NASH patient study Part 1, safety. The format is in vivo, human. Particulars: 10 mg QD 12 weeks, NASH patients. On the procedure:
as §4

Data set [10] deals with NASH and inflammation biomarkers. Description: NASH patient study Part 1, imaging and blood biomarkers of liver inflammation and fibrosis. It is filed as in vivo, human. As to the method:
Plasma samples are collected for measurement of plasma concentrations of study drug and metabolites. Urine samples are collected for measurement of urine concentrations of study drug and metabolites. Patients who are not participating in the PK/PD sub-study undergo trough PK sampling only. Blood collection for NASH/fibrosis markers (CK-18 (M30 and M65), PIIINP, TIMP-1, HA, PRO-C3, and C3M) and inflammation markers (hs-CRP, IL-6, ICAM-1, and VCAM-1) are also conducted. The following exploratory fibrosis scores may also be calculated: FIB-4, enhanced liver fibrosis (ELF), and NAFLD. The PRO-C3/C3M ratio may be calculated. Patients are monitored for adverse events.
as §4

Setting [11] is: 1, 4 mg QD 7 days, 10 mg QD 14 days.

`COC1CCN(c2ncc(OC/C(=C/F)CN)cn2)CC1.Cc1ccc(S(=O)(=O)O)cc1` [tosylate salt of Compound 1]: in data set [1], the “Subject incidence of any TEAE” value is 2 (25), the “TEAE frequency: contact dermatitis” value was 2 (25) and the “TEAE frequency: sore throat” value is 1 (12.5). Besides, in [2], the “plasma PK exposure increase with dose” value is reported as “greater than dose proportional”. Further, the clearance from plasma result in data set [2] (single doses) is “rapidly cleared from plasma”.
Regarding `COC1CCN(c2ncc(OC/C(=C/F)CN)cn2)CC1` [Compound 1, (E)-3-fluoro-2-(((2-(4-methoxypiperidin-1-yl)pyrimidin-5-yl)oxy)methyl)prop-2-en-1-amine], in data set [3] (setting [11]), the “discontinuation due to an adverse event” value is reported as “No subject discontinued” and the “severity of adverse events” value is “mild (grade 1)”. Also, the “safety and tolerability (laboratory, vital signs, ECG)” value in [3] (up to 10 mg QD for 14 days, healthy subjects) was “no notable findings; also recorded: safe and well tolerated”. At plasma SSAO [4] (single dose 1 mg to 10 mg), the “duration of SSAO activity inhibition after a single dose” value is given as “up to seven days”. For the same compound, the “duration of suppression of plasma SSAO amine oxidase activity after a single dose” value on plasma SSAO [4] (single dose 1-10 mg) was “up to 1 week”. In addition, the “liver inflammation and fibrosis” value in the data set on rat model of NASH was “decreases liver inflammation and fibrosis”. Besides, the “Cmax relative to IC50 for MAO-A (times lower)” value on MAO-A is “more than 800 times”. The “Cmax relative to IC50 for MAO-B (times lower)” value on MAO-B is recorded as “more than 800 times”. Further, in the data set on plasma methylamine [5] (Day 1), the plasma methylamine levels result is listed as “increased in a dose proportional manner”. In the data set with plasma methylamine [5] (last day of administration, after multiple doses), the plasma methylamine levels entry is recorded as “further increases”. For the same compound, the “inhibition of plasma VAP-1 activity” value on plasma VAP-1 is given as “sustained suppression; also recorded: near complete inhibition”. In addition, the “plasma PK exposure increases between dose groups” value in data set [6] (Day 1, 1, 4, 10 mg) is on record as “greater than dose proportional”. For the same compound, the “accumulation after multiple QD doses” value in data set [6] (each dose level) is “significant accumulation”. For the same compound, the “duration of near complete inhibition of plasma SSAO amine oxidase activity after cessation of dosing” value on plasma SSAO [7] (after multiple QD doses) is reported as “up to 2 weeks”. Besides, at plasma SSAO [7] (plasma, single and multiple doses), the “inhibition of total amine oxidase” value is on record as “incomplete”. The “plasma methylamine (MMA) levels” value with plasma methylamine [8] is on record as “increased; also recorded: Dose-dependent increases”. Moreover, the “plasma PK exposure increase with dose” value in [2] was “greater than dose proportional”. Also, in data set [9], the “severity of AEs” value is listed as “mild or moderate” and the tolerability result is listed as “well-tolerated”. Also, in data set [10] (10 mg QD 12 weeks), the “changes in cT1 from baseline to end of treatment” value is “no significant changes” and the “difference from placebo in change from BL cT1, liver fat fraction, liver enzymes, or cytokeratin-18” value is “no statistically significant differences”. Besides, the “ICAM-1 decrease relative to BL, mean (±SE)” value in data set [10] (10 mg QD, Week 8) is on record as 34.85 (56.03) μg/L. Moreover, in data set [10] (10 mg QD, Week 12), the “TIMP-1 decrease relative to BL, mean (±SE)” value is on record as 29.58 (9.26) ng/ml and the “VCAM-1 decrease relative to BL, mean (±SE)” value was 24.327 (20.5850) μg/L.
